This note sets out measurements from patent US12624018B1, “Inhibitors of RIPK2 and medical uses thereof” (Odyssey Therapeutics, Inc., priority 2022, dated 2026).

In assay [1] the target is T1, RIPK2 and XIAP protein-protein interaction (Homo sapiens, UniProt O43353).
T1 construct: the N-terminus of full-length RIPK2 was appended with the HaloTag fusion protein; expressed in transfected cells; host or cells: HEK293T
The assay can be described thus: Inhibition of the interaction of RIPK2 with XIAP (NanoBRET in HEK293T cells). The assay is classed as cell-based. The following applies: for IC50: RIPK2 HaloTag / XIAP NanoLuc, read-out: NanoBRET Scaffolding IC50. From the text:
An assay measuring the RIPK2 and XIAP protein-protein interaction was generated using the NanoBRET protein:protein interaction system (Promega) which measures the energy transfer from a bioluminescent protein donor (NanoLuc fusion protein) to a fluorescent protein acceptor (Halotag fusion protein). In this assay, the C-terminus of full-length XIAP was appended with the NanoLuc fusion protein and the N-terminus of full-length RIPK2 was appended with the HaloTag fusion protein. Assay medium consisted of Opti-MEM I reduced serum medium with no phenol red plus 4% heat inactivated FBS. Transfection reagents were combined in a microfuge tube as follows: 400 μL of assay medium, 8 μL of vector with N-terminus of RIPK2 HaloTag fusion protein (vector concentration at 1 μg/μL), 0.8 μL of vector with C-terminus of XIAP NanoLuc fusion protein (vector concentration at 1 μg/μL), and 24 μL of FuGENE HD transfection reagent (Promega, catalogue number E2312). […] Test compounds were prepared into a 10 mM DMSO solution and were serially diluted into 10 points using a 3-fold dilution in a 384 well plate using a TECAN EV0200.
Method: HEK293T cells were transfected with the RIPK2 HaloTag fusion and XIAP NanoLuc fusion vectors in suspension. […] Transfection reagents were pre-mixed and incubated at room temperature for 30 minutes. Then the total transfection reagent mixture was added dropwise to the 16 mL cell suspension and mixed gently. 40 μL of the cells and transfection reagent suspension was plated into a white 384 well plate and incubated at 37° C. in a CO2 incubator for 24 hours. […] Lastly, a 3× solution of NanoBRET Nano-Glo substrate in Opti-MEM I reduced serum media (no phenol red; 20 μL total volume) was added to each well and incubated for 2-3 minutes at room temperature. The plate was then measured using 460 nm filter (donor emission) and 618 nm filter (acceptor emission) in an EnVision multimode plate reader (PerkinElmer). The NanoBRET ratio values were determined by dividing the acceptor emission value by the donor emission value for each sample.
Background: BRET reads energy transfer from a luciferase to a nearby fluorophore.

In the next assay the test system is human NOD2 signaling. Kind of assay: Inhibition of human NOD2 signaling in HEK-Blue-hNOD2 cells (L18-MDP stimulated, SEAP reporter). The assay is classed as cell-based. The method, boiled down: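 Read-out is SEAP absorbance at 620 nm after 3 h QUANTI-Blue development of supernatant from HEK293 cells carrying NOD2 and a SEAP reporter (12500/well). Cells got compound (10 points, 3-fold dilutions) and 0.5 ng/mL L18-MDP for 24 h at 37 °C; percent inhibition vs stimulated/unstimulated controls, 4-parameter IC50.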

The next assay has as its target T2, RIPK2 enzyme (Homo sapiens, UniProt O43353).
T2 construct: purchased Carna 09-128
The assay can be described thus: RIPK2 inhibition (ADP-Glo Kinase Assay). The assay is classed as biochemical. The following applies: RIPK2 5 nM, ATP 150 μM, MBP substrate, read-out: RIPK2 IC50. A digest of the protocol: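 Swine MBP substrate; compound and 5 nM RIPK2 first mixed for 30 min at room temperature; buffer pH 7.5 HEPES 50 mM with 10 mM MgCl2, 2 mM DTT, 1 mM EGTA, Brij-35, BSA.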
On the technique in general: In ADP-Glo the light output rises with the ADP produced.

Setting [2] is: Homo sapiens, HEK-Blue hNOD2, HEK-Blue-hNOD2 cells, NOD2 ligand stimulation, SEAP reporter, read-out: hNOD2 IC50.

Like-named read-outs stand apart in the source and are kept apart here.

T2 sequence (O43353 1-299 limits assumed): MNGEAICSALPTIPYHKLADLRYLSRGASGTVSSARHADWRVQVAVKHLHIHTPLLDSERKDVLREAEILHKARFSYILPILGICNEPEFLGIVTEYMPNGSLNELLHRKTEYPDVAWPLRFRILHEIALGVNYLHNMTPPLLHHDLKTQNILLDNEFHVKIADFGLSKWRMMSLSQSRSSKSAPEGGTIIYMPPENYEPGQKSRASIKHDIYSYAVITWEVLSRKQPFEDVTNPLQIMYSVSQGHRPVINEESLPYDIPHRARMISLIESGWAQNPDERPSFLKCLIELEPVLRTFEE
T1 sequence (O43353 whole entry, the tested form may be a part): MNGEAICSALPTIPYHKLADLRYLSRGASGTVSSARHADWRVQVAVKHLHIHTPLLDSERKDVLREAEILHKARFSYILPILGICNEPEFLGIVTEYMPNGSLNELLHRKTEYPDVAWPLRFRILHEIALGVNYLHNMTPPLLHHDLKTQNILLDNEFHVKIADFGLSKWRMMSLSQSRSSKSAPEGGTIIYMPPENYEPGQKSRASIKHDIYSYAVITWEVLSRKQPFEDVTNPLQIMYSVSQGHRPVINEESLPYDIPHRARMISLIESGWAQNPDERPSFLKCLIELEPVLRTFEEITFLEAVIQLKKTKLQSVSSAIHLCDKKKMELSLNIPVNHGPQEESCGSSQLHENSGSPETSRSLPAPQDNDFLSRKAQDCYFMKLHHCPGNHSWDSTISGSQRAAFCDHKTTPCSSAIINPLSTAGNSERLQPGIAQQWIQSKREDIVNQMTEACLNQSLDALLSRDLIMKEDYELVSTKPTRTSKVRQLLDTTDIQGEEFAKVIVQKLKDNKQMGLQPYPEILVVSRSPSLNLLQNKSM

In the case of `Cc1cc(CC(=O)Nc2cnn(C(C)(C)C)c2)c(F)cc1Oc1ccnc2ccc(S(=N)(=O)C3CC3)cc12` (single isomer, unassigned) [Compound 466, N-(1-(tert-butyl)-1H-pyrazol-4-yl)-2-(4-((6-(cyclopropane-sulfonimidoyl)quinolin-4-yl)oxy)-2-fluoro-5-methylphenyl) acetamide], the IC50 in assay [1] was 48 nM; in the assay with human NOD2 signaling (setting [2]) it was 2.5 nM; at RIPK2 enzyme, less than 2.5 nM.
Turning to `Cc1cc(CC(=O)Nc2cnn(C(C)(C)C)c2)c(F)cc1Oc1ccnc2ccc(S(=N)(=O)C3CC3)cc12` (single isomer, unassigned) [Compound 467, N-(1-(tert-butyl)-1H-pyrazol-4-yl)-2-(4-((6-(cyclopropane-sulfonimidoyl)quinolin-4-yl)oxy)-2-fluoro-5-methylphenyl) acetamide], the IC50 was 30.2 nM in assay [1]; 1.7 nM with human NOD2 signaling (HEK-Blue-hNOD2 cells, NOD2 ligand stimulation, SEAP reporter, read-out: hNOD2 IC50); less than 2.5 nM on RIPK2 enzyme.
Take `[2H]C([2H])([2H])NC(=O)c1ccc2nccc(Oc3cc(F)c(CC(=O)Nc4cnn(C56CC(C5)C6)c4)cc3C([2H])([2H])[2H])c2c1` (single isomer, unassigned) [Compound 512, 4-(4-(2-((1-(bicyclo[1.1.1]pentan-1-yl)-1H-pyrazol-4-yl)amino)-2-oxoethyl)-5-fluoro-2-(methyl-d3)phenoxy)-N-(methyl-d3)quinoline-6-carboxamide]: the IC50 in assay [1] is 57.6 nM; in the assay on human NOD2 signaling (setting [2]), 2.4 nM; at RIPK2 enzyme, less than 2.5 nM.
In the case of `Cc1cc(CC(=O)Nc2cnn(C(C)(C)C)c2)ccc1Oc1ccnc2ccc(C3(C(N)=O)CCC3)cc12` [Compound 604, 1-(4-(4-(2-((1-(tert-butyl)-1H-pyrazol-4-yl)amino)-2-oxoethyl)-2-methylphenoxy)quinolin-6-yl)cyclobutane-1-carboxamide], the results for the IC50 in the assay on human NOD2 signaling (setting [2]) and at RIPK2 enzyme were 12.4 nM and less than 2.5 nM, respectively.
For `Cc1cc(CC(=O)Nc2cnn(C(C)(C)C)c2)ccc1Oc1ccnc2ccc(C3(S(C)(=O)=O)CC3)cc12` [Compound 605, N-(1-(tert-butyl)-1H-pyrazol-4-yl)-2-(3-methyl-4-((6-(1-(methylsulfonyl)cyclopropyl)quinolin-4-yl)oxy)phenyl)acetamide] the same measures were 15.6 nM and less than 2.5 nM.
Consider `Cc1c(Oc2ccnc3ccc(C4(C(N)=O)CCC4)cc23)cc(F)c(CC(=O)Nc2cnn(C(C)(C)C)c2)c1F` [Compound 606, 1-(4-(4-(2-((1-(tert-butyl)-1H-pyrazol-4-yl)amino)-2-oxoethyl)-3,5-difluoro-2-methylphenoxy)quinolin-6-yl)cyclobutane-1-carboxamide], for which the figures for the IC50 in the assay with human NOD2 signaling (setting [2]) and at RIPK2 enzyme were 0.8 nM and 3.8 nM, respectively.
For `Cc1c(Oc2ccnc3ccc(C4(S(C)(=O)=O)CC4)cc23)cc(F)c(CC(=O)Nc2cnn(C(C)(C)C)c2)c1F` [Compound 607, N-(1-(tert-butyl)-1H-pyrazol-4-yl)-2-(2,6-difluoro-3-methyl-4-((6-(1-(methylsulfonyl)cyclopropyl)quinolin-4-yl)oxy)phenyl)acetamide] the same measures were 6.1 nM and 3.5 nM.
Taken in the same sequence, the figures for `[2H]C([2H])([2H])C(n1cc(NC(=O)Cc2cc(C)c(Oc3ccnc4cc(F)c(C(N)=O)cc34)c(F)c2)cn1)(C([2H])([2H])[2H])C([2H])([2H])[2H]` [Compound 608, 7-fluoro-4-(2-fluoro-6-methyl-4-(2-((1-(2-(methyl-d3)propan-2-yl-1,1,1,3,3,3-d6)-1H-pyrazol-4-yl)amino)-2-oxoethyl)phenoxy) quinoline-6-carboxamide] were 1.6 nM and 2.5 nM.
Taken in the same sequence, the figures for `Cc1c(Oc2ccnc3cc(F)c(C(N)=O)cc23)ccc(CC(=O)Nc2cnn(C(C)(C)C)c2)c1C#N` [Compound 610, 4-(4-(2-((1-(tert-butyl)-1H-pyrazol-4-yl)amino)-2-oxoethyl)-3-cyano-2-methylphenoxy)-7-fluoroquinoline-6-carboxamide] were 2.1 nM and less than 2.5 nM.
Turning to `CNC(=O)c1cc2c(Oc3ccc(CC(=O)Nc4cnn(C(C)(C)C)c4)c(C#N)c3C)ccnc2cc1F` [Compound 611, 4-(4-(2-((1-(tert-butyl)-1H-pyrazol-4-yl)amino)-2-oxoethyl)-3-cyano-2-methylphenoxy)-7-fluoro-N-methylquinoline-6-carboxamide], the IC50 was 0.9 nM with human NOD2 signaling (setting [2]) and less than 2.5 nM at RIPK2 enzyme.
Taken in the same sequence, the figures for `Cc1nc(CC(=O)Nc2cnn(C(C)(C)C)c2)ccc1Oc1ccnc2cc(F)c(C(N)=O)cc12` [Compound 612, 4-((6-(2-((1-(tert-butyl)-1H-pyrazol-4-yl)amino)-2-oxoethyl)-2-methylpyridin-3-yl)oxy)-7-fluoroquinoline-6-carboxamide] were 3.6 nM and less than 2.5 nM.
For `CNC(=O)c1cc2c(Oc3ccc(CC(=O)Nc4cnn(C(C)(C)C)c4)nc3C)ccnc2cc1F` [Compound 613, 4-((6-(2-((1-(tert-butyl)-1H-pyrazol-4-yl)amino)-2-oxoethyl)-2-methylpyridin-3-yl)oxy)-7-fluoro-N-methylquinoline-6-carboxamide] the same measures were 4.6 nM and less than 2.5 nM.
For `[2H]C([2H])([2H])NC(=O)c1cc2c(Oc3ccc(CC(=O)Nc4cnn(C(C)(C)C)c4)nc3C)ccnc2cc1F` [Compound 614, 4-((6-(2-((1-(tert-butyl)-1H-pyrazol-4-yl)amino)-2-oxoethyl)-2-methylpyridin-3-yl)oxy)-7-fluoro-N-(methyl-d3)quinoline-6-carboxamide] the same measures were 3.7 nM and less than 2.5 nM.
Regarding `Cc1cc(CC(=O)Nc2cc(C(C)(C)C)[nH]n2)cc(F)c1Oc1ccnc2cc(F)c(C(N)=O)cc12` [Compound 617, 4-(4-(2-((5-(tert-butyl)-1H-pyrazol-3-yl)amino)-2-oxoethyl)-2-fluoro-6-methylphenoxy)-7-fluoroquinoline-6-carboxamide], the IC50 with human NOD2 signaling (setting [2]) was 1.1 nM; on RIPK2 enzyme it was less than 2.5 nM.
Taken in the same sequence, the figures for `Cc1cc(CC(=O)Nc2cc(C(C)(C)C)[nH]n2)cc(C)c1Oc1ccnc2cc(F)c(C(N)=O)cc12` [Compound 618, 4-(4-(2-((5-(tert-butyl)-1H-pyrazol-3-yl)amino)-2-oxoethyl)-2,6-dimethylphenoxy)-7-fluoroquinoline-6-carboxamide] were 0.3 nM and less than 2.5 nM.
Taken in the same sequence, the figures for `CC(C)(C)c1cc(NC(=O)Cc2ccc(Oc3ccnc4cc(F)c(C(N)=O)cc34)c(C(F)F)c2)n[nH]1` [Compound 619, 4-(4-(2-((5-(tert-butyl)-1H-pyrazol-3-yl)amino)-2-oxoethyl)-2-(difluoromethyl)phenoxy)-7-fluoroquinoline-6-carboxamide] were 1.4 nM and less than 2.5 nM.
Turning to `[2H]C([2H])([2H])C(n1cc(NC(=O)Cc2cc(C)c(Oc3ccnc4ccc(C(=O)NC)cc34)cc2F)cn1)(C([2H])([2H])[2H])C([2H])([2H])[2H]` [Compound 622, 4-(5-fluoro-2-methyl-4-(2-((1-(2-(methyl-d3)propan-2-yl-1,1,1,3,3,3-d6)-1H-pyrazol-4-yl)amino)-2-oxoethyl)phenoxy)-N-methylquinoline-6-carboxamide], the IC50 was 2 nM in the assay with human NOD2 signaling (setting [2]) and less than 2.5 nM at RIPK2 enzyme.
Regarding `CC(C)(C)S(=O)(=O)c1cc2c(Nc3ccc4scnc4c3)ncnc2cc1OCCOP(=O)(O)O` [GSK 2983559, reference compound], the “inhibition of the RIPK2 and XIAP protein-protein interaction” value in assay [1] (NanoBRET) is reported as “no inhibition”. In addition, the IC50 in the assay with human NOD2 signaling (Homo sapiens, HEK-Blue hNOD2, 24 h, HEK-Blue-hNOD2 cells, L18-MDP 0.5 ng/mL, 24 h, read-out: hNOD2 inhibition IC50) is more than 10000 nM.
